Ends that are not written are not given here.
Columns and labels:
[1] = Gastric emptying (GIP hybrids, Figure 23A); type: in vivo; settings: summary of properties
Procedure: (§1) In Figure 13B bars represent mean +/- sd. Peptide was injected IP at t = -5 minutes into 4-hour fasted NIH/Swiss female mice. Gavage (1.5g/kg) was given at t = 0. […] In Figure 17 points represent mean +/- sem. […] Samples were taken at t=60, t=120 and t=180.

[2] = at doses of 100µg; cited from earlier work
[3] = type: in vivo, rats; settings: 100 pmol/kg/min infusion dose in rats
Procedure: As described, fed, isoflurane anesthetized HSD male rats were intubated and cannulated via femoral artery and vein and allowed to stabilize for 1 hour. […] At t=0, an i.v. bolus of 5.7mmol/kg D-glucose was administered over 2 minutes. Samples for glucose measurement and insulin concentrations were taken at various time points before and after (0 to 90 minutes) glucose infusion.

[4] = Calcium lowering (GIP hybrids, Figure 23B); type: in vivo; settings: summary of properties
Procedure: as §1

[5] = type: in vivo, NIH/Swiss mice; settings: summary of properties
Procedure: In Figure 3A, bars represent mean ± sd, n=6-10. […] Gavage (1.5g/kg) was given at t=0. Sample was taken at t=30 min. […] In Figure 3B, points represent mean ± sem, n=8-15.
as §1

[6] = Body composition in DIO mice; type: in vivo, C57BL/6J mice; settings: summary of properties
Source text: An exemplary assay can be one that involves utilization of a diet-induced obese (DIO) mouse model for metabolic disease. […] During the study, the mice can continue to eat their high-fat diet. Water can be provided ad libitum throughout the study.
DIO mice can be implanted with subcutaneous (SC) intrascapular osmotic pumps to deliver either vehicle (50% dimethylsulfoxide (DMSO) in water) or a compound of the invention. […] Body weights and food intake can be measured over regular intervals throughout the study periods. Respiratory quotient (RQ, defined as CO2 production ÷ O2 consumption) and metabolic rate can be determined using whole-animal indirect calorimetry (Oxymax, Columbus Instruments, Columbus, OH). The mice can be euthanized by isoflurane overdose, and an index of adiposity (bilateral epididymal fat pad weight) measured. Moreover, prior to determination of epididymal weight, body composition (lean mass, fat mass) for each mouse can be analyzed using a Dual Energy X-ray Absorptiometry (DEXA) instrument per manufacturer's instructions (Lunar Piximus, GE Imaging System).

[7] = type: in vivo, db/db mice; settings: Figure 4; GIP at a 10 fold higher dose
Procedure: Peptide was injected IP at t=0 immediately following baseline sample into 2-hour fasted db/db mice.

[8] = type: in vivo, C57BL/6 mice
[9] = Glucose in rats (summary table); type: in vivo; settings: summary of properties
[10] = target: cardiomyocyte Gs- and Gi-coupled receptors; assay: cAMP assay in neonatal cardiomyocytes; type: cell-based, rat
Procedure: Activation of cardiomyocyte Gs- and Gi-coupled receptors was determined as a measure of cAMP production.
Neonatal cardiomyocytes were isolated using a commercially available system. […] Sprague Dawley neonatal rats (1-2 days old) were decapitated and the beating heart dissected out into digestion buffer (Cellutron D1 buffer) to dissociate cells. […] The resuspended cells incubated in buffer (Cellutron D3 buffer) for sufficient time to allow optimal dispersion and minimize the need for pipetting to break up clumps. Cells released from the first 2 digestions were discarded since a significant portion of these is red blood cells. Resuspended cells were filtered and allowed to pre-plate for 1 hour on plastic in an incubator in NS media (Cellutron, NJ) in order to remove fibroblasts. After 1 hour of pre-plating, floating cells are removed and the flask rinsed with NS media. The floating cells and the cells in the rinse media were combined and counted. Residual red blood cells, which are smaller that the cardiac myocytes, were not counted.
At Day 1, the NS media was replaced with fresh NS media.
Dose response was determined.
For Gs assays the positive control was 10uM forskolin and negative control was buffer. For Gi assays the positive control was buffer and the negative control was 10uM forskolin.

[11] = Circulatory system effects in conscious rats by telemetry; type: in vivo, Harlan Sprague Dawley rats
[12] = type: in vivo, NIH/Swiss mice; settings: mice; summary of properties
Procedure: Gavage (1.5g/kg) was given at t=0. Sample was taken at t=30 min.

human GIP receptor [13] = target: human GIP receptor (Homo sapiens, UniProt P48546)
Sequence of human GIP receptor (Homo sapiens, UniProt P48546) (P48546 22-466 limits assumed): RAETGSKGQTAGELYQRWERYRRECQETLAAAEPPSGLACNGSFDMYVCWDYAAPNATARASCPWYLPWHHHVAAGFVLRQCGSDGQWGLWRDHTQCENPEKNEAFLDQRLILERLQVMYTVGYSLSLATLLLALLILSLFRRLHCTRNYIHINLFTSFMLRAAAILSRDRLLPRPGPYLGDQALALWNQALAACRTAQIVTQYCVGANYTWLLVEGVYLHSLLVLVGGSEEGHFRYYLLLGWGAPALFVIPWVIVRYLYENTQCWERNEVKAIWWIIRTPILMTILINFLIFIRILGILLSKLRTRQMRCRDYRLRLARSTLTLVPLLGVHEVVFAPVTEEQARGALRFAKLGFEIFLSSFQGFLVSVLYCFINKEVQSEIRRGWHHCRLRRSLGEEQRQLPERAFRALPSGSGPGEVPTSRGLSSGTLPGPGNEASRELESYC

human GIP receptor [14] = settings: read-out: GIP RBA; GIP receptor binding; RIN where stated; unit nM printed for these values
[15] = 80 nmol/kg, remote intravenous dosing

Substance: YAEGTFISDYSIAMDKIHQQDFVNWLLAQKGKKNDWKHNITQ-OH [GIP]
- Gastric Emptying [1]: not active
- inhibition of gastric emptying [2]: weakly active or inactive
- insulin levels prior to the glucose challenge [3]: significant rise in insulin levels
- insulinotropic response to an intravenous glucose challenge [3]: significant enhancement of the insulinotropic response
- iCa [4]: not active
- OGTT [5]: decreases
- Body Comp (mDIO) [6]: No effect on lean mass
- glucose lowering in a diabetic mouse model [7]: modest and wanes over time
- BWt (mDIO) ([8]; DIO mice, summary of properties): not active
- body weight change in diet-induced-obese mice ([8]; infused via osmotic pump for 2 weeks, high-fat diet): no effect on body weight change
- Glucose rats [9]: not active
- EC(50) ([10]; cAMP production, experiment of Figures 18A/18B): 9.1 nM
- EC(50) ([10]; cardiomyocyte Gs-coupled receptor activation, three independent experiments): 15.6 nM
- acute food intake (IP at t=0, consumed at t=30, 60, 120 min): did not acutely inhibit food intake
- Food Intake (summary of properties): not active
- dP/dt (inotropic effect) [11, 15]: positive inotropic effect
- heart rate [11, 15]: chronotropic (heart rate elevating) effect
- mean arterial pressure [11, 15]: no effect
- Heart Rate (rat) ([11]; rat, summary of properties): increases
- MAP. (rat) ([11]; rat, summary of properties): not active
- Glucose mice [12]: weak

Substance: HGEGTLISDYSIAMDKIHQQDFVNWLLAQKPKKIRYS-NH2 [0601 GIP48 43]
- (%Inh 10nm,GIP-LF Assay) (human GIP receptor [13]): 3(%Inh 10nM)

Substance: YSDGTFISDYSIAMDKlHQQDFVNWLLAQKPKKIRYS-NH2 [Compound 0601GIP4386]
- IC50 (human GIP receptor [14]): 156 nM

Reference: patent EP2057188B1 (priority 2006, dated 2008)
